Experimental data published in US11071730B2, “Substituted 6-azabenzimidazole compounds” (Gilead Sciences, Inc., priority 2018, dated 2021).

molecular target: human HPK1 (MAP4K1) (Homo sapiens (Human), UniProt Q92918); experiment: HPK1 IC50 Assay (TR-FRET biochemical kinase assay, STK S1 peptide substrate); conditions: recombinant human HPK1 kinase domain 0.15 nM, 10 μM ATP, 1 μM STK S1 peptide; geometric mean
Protocol: The enzymatic activity of human HPK1 (MAP4K1) was monitored in a biochemical assay in the presence or absence of compounds and using a synthetic peptide substrate. An increase in phosphorylation of the peptide by HPK1 was indicative of its kinase activity.
Recombinant HPK1 kinase domain produced via baculovirus infection of insect cells was obtained from Proteros (Proteros Biostructures #PR-0322) and was pre-activated in the presence of 2 mM ATP (Sigma-Aldrich, cat #GE27-2056-01) and 2 mM magnesium chloride for 16 hours at 4° C. The protein reaction mixture was then loaded to a desalting column (Thermo Fisher Scientific, Cat #89889) to remove excess ATP. HPK1 was eluted with buffer containing 20 mM Tris (2-Amino-2-(hydroxymethyl)propane-1,3-diol) pH 8.0, 150 mM NaCl, 2 mM dithiothreitol and 5% glycerol, and was frozen at −80° C. for later use.
Ten nanoliters of test compounds dissolved in DMSO at various concentrations were dispensed into a 384-well ProxiPlate (PerkinElmer #6008289). Five microliters of a solution of recombinant HPK1 diluted in HPK1 kinase assay buffer (50 mM BES [N,N-Bis(2-hydroxyethyl)-2-aminoethanesulfonic acid], pH 7.0; 10 mM magnesium chloride; 0.01% Triton X-100; 1 mM dithiothreitol; 0.01% bovine serum albumin; 0.1 mM sodium orthovanadate) was added to the compound-containing plate and was incubated for 15 minutes at 25° C. Five microliters of a mixture of ATP (Sigma-Aldrich #A6559) and peptide substrate STK S1 (Cisbio #61ST1BLC) diluted in HPK1 kinase assay buffer was then added to start the reaction. Final concentrations were 0.15 nM for HPK1, 10 μM for ATP, and 1 μM for the STK S1 peptide substrate. The reaction mixture was incubated at 25° C. for 3 hours and was stopped with the addition of 10 μl of an EDTA (Ethylenediaminetetraacetic acid)-containing detection buffer (Cisbio #62SDBRDF) supplemented with Europium cryptate-labeled anti-phospho-serine/threonine antibodies (Cisbio #62ST1PEJ) and XL665-labeled streptavidin (Cisbio #610SAXLG). The mixture was incubated for 16 hours at room temperature and peptide phosphorylation was measured by time-resolved fluorescence energy transfer (665 nm/620 nm) on an Envision plate reader (PerkinElmer).
Data in Table 1 were normalized based on positive (staurosporine) and negative (DMSO) controls. Least squares curve fittings were performed using a four-parameter variable slope nonlinear regression model. IC50 is defined as the concentration of compound required to inhibit 50% of maximum phosphorylation. IC50 values from multiple experiments were averaged by geometric mean and the standard deviation was calculated.

Sequence of human HPK1 (MAP4K1) (Q92918 17-274): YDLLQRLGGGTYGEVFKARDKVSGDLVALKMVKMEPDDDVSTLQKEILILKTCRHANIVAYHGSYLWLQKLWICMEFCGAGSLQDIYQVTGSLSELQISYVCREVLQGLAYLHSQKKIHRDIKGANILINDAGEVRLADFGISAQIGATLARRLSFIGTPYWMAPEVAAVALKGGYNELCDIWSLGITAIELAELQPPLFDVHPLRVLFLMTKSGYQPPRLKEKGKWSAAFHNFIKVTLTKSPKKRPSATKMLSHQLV

| Structure (SMILES) | IC50 [nM] |
| --- | --- |
| CCn1cnc2cc(-c3ccc4c(c3)N([C@H]3C[C@@H](N5CCCCC5)C3)C(=O)C43CCN(C4COC4)CC3)nc(Nc3ccncc3F)c21 [Example 175] | 0.8 |
| CC(C)n1cnc2cc(-c3ccc4c(c3)N([C@H]3C[C@@H](N5CC(C)(C)C5)C3)C(=O)C43CCN(C4COC4)CC3)nc(Nc3ccncc3F)c21 [Example 176] | 0.8 |
| CC(C)n1cnc2cc(-c3ccc4c(c3)N([C@H]3C[C@@H](N5CC6CCC(C6)C5)C3)C(=O)C43CCN(C(=O)C4(C)COC4)CC3)nc(Nc3ccncc3F)c21 [Example 123] | 0.1 |
| CC(C)n1cnc2cc(-c3ccc4c(c3)N([C@H]3C[C@@H](N5C[C@H]6CC[C@H]6C5)C3)C(=O)C43CCN(C(=O)C(C)(C)CO)CC3)nc(Nc3ccncc3F)c21 [Example 112] | 0.08 |
| CC(=O)N1CCC2(CC1)C(=O)N([C@H]1C[C@@H](N3CC4CC4(C)C3)C1)c1cc(-c3cc4ncn(C(C)C)c4c(Nc4ccncc4F)n3)ccc12 (stereo partly shown) [Example 187] | 0.2 |
| CC(=O)N1CCC2(CC1)C(=O)N([C@H]1C[C@@H](N3C4CCCC3CC4)C1)c1cc(-c3cc4ncn(C(C)C)c4c(Nc4ccncc4F)n3)ccc12 [Example 186] | 0.3 |
| CC(=O)N1CCC2(CC1)C(=O)N([C@H]1C[C@@H](N3CCC4(CC4)C3)C1)c1cc(-c3cc4ncn(C(C)C)c4c(Nc4ccncc4F)n3)ccc12 [Example 178] | 0.8 |
| CC(C)n1cnc2cc(-c3ccc4c(c3)N([C@H]3C[C@@H](N5CCCCC5)C3)C(=O)C43CCN(C(=O)C4(F)CC4)CC3)nc(Nc3ccncc3F)c21 [Example 150] | 0.5 |
| CC(=O)N1CCC2(CC1)C(=O)N([C@H]1C[C@@H](N3CC4CCC(C4)C3)C1)c1cc(-c3cc4ncn(C(C)C)c4c(Nc4ccncc4F)n3)ccc12 [Example 181] | 0.1 |
| CC(C)n1cnc2cc(-c3ccc4c(c3)N([C@H]3C[C@@H](N5CC6CCC(C6)C5)C3)C(=O)C43CCN(C(=O)C(C)(C)CO)CC3)nc(Nc3ccncc3F)c21 [Example 127] | 0.07 |
| CC(C)n1cnc2cc(-c3ccc4c(c3)N([C@H]3C[C@@H](N5CCCC5)C3)C(=O)C4(C)C)nc(Nc3ccncc3F)c21 [Example 188] | 3.2 |
| CCC(=O)N1CCC2(CC1)C(=O)N([C@H]1C[C@@H](N3CCCCC3)C1)c1cc(-c3cc4ncn(C(C)C)c4c(Nc4ccncc4F)n3)ccc12 [Example 167, 6-(4-((3-fluoropyridin-4-yl)amino)-3-isopropyl-3H-imidazo[4,5-c]pyridin-6-yl)-1-((1s,3s)-3-(piperidin-1-yl)cyclobutyl)-1′-propionylspiro[indoline-3,4′-piperidin]-2-one] | 0.4 |
| CC(=O)N1CCC2(CC1)C(=O)N(C1CC(N3CCCC4(CC4)C3)C1)c1cc(-c3cc4ncn(C(C)C)c4c(Nc4ccncc4F)n3)ccc12 (stereo not shown) [Example 177, 1-((1s,3s)-3-(5-azaspiro[2.5]octan-5-yl)cyclobutyl)-1′-acetyl-6-(4-((3-fluoropyridin-4-yl)amino)-3-isopropyl-3H-imidazo[4,5-c]pyridin-6-yl)spiro[indoline-3,4′-piperidin]-2-one] | 0.3 |
| CC(C)n1cnc2cc(-c3ccc4c(c3)N([C@H]3C[C@@H](N5CCCC(C)(C)C5)C3)C(=O)C43CCN(C(=O)C4CCO4)CC3)nc(Nc3ccncc3F)c21 (stereo partly shown) [Example 108] | 0.2 |
| CC(C)n1cnc2cc(-c3ccc4c(c3)N([C@H]3C[C@@H](N5CCCCC5)C3)C(=O)C43CCN(C(=O)C(C)(C)C#N)CC3)nc(Nc3ccncc3F)c21 [Example 141] | 0.3 |
| CC(C)n1cnc2cc(-c3ccc4c(c3)N([C@H]3C[C@@H](N5CCC(C)(C)C5)C3)C(=O)C43CCN(C(=O)c4ncco4)CC3)nc(Nc3ccncc3F)c21 [Example 159] | 0.4 |
| CC(C)n1cnc2cc(-c3ccc4c(c3)N([C@H]3C[C@@H](N5CCCCC5)C3)C(=O)C43CCN(C(=O)[C@@H]4CCC[C@@H]4O)CC3)nc(Nc3ccncc3F)c21 [Example 109] | 0.3 |
| CC(C)n1cnc2cc(-c3ccc4c(c3)N([C@H]3C[C@@H](N5CCCCC5)C3)C(=O)C43CCN(C4COC4)CC3)nc(Nc3ccncc3F)c21 [Example 174, 6-(4-((3-fluoropyridin-4-yl)amino)-3-isopropyl-3H-imidazo[4,5-c]pyridin-6-yl)-1′-(oxetan-3-yl)-1-((1s,3s)-3-(piperidin-1-yl)cyclobutyl)spiro[indoline-3,4′-piperidin]-2-one] | 0.5 |
| COC1(C(=O)N2CCC3(CC2)C(=O)N([C@H]2C[C@@H](N4CCCCC4)C2)c2cc(-c4cc5ncn(C(C)C)c5c(Nc5ccncc5F)n4)ccc23)CC1 [Example 146] | 0.3 |
| CC(C)C(=O)N1CCC2(CC1)C(=O)N([C@H]1C[C@@H](N3CCCCC3)C1)c1cc(-c3cc4ncn(C(C)C)c4c(Nc4ccncc4F)n3)ccc12 [Example 171] | 0.5 |
| CC(=O)N1CCC2(CC1)C(=O)N([C@H]1C[C@@H](N3CCCC[C@@H]3C)C1)c1cc(-c3cc4ncn(C(C)C)c4c(Nc4ccncc4F)n3)ccc12 [Example 184] | 0.7 |
| CC(C)n1cnc2cc(-c3ccc4c(c3)N([C@H]3C[C@@H](N5CC6CCC(C6)C5)C3)C(=O)C43CCN(C(=O)[C@@H](C)O)CC3)nc(Nc3ccncc3F)c21 [Example 126] | 0.1 |

same assay, conditions: recombinant human HPK1 kinase domain 0.15 nM, 10 μM ATP, 1 μM STK S1 peptide; geometric mean of multiple experiments

| Structure (SMILES) | IC50 [nM] |
| --- | --- |
| CC(C)n1cnc2cc(-c3ccc4c(c3)N([C@H]3C[C@@H](N5C[C@@H](O)C(C)(C)C5)C3)C(=O)C43CCN(C4COC4)CC3)nc(Nc3ccncc3F)c21 [Example 40] | 0.6 |
| CC(C)n1cnc2cc(-c3ccc4c(c3)N([C@H]3C[C@@H](N5CCC(C)(C)C5)C3)C(=O)C43CCN(C(=O)[C@H]4CC[C@@H](C)O4)CC3)nc(Nc3ccncc3F)c21 [Example 20A, 1-((1s,3S)-3-(3,3-dimethylpyrrolidin-1-yl)cyclobutyl)-6-(4-((3-fluoropyridin-4-yl)amino)-3-isopropyl-3H-imidazo[4,5-c]pyridin-6-yl)-1′-((2R,5R)-5-methyltetrahydrofuran-2-carbonyl)spiro[indoline-3,4′-piperidin]-2-one] | 0.1 |
| CC(C)n1cnc2cc(-c3ccc4c(c3)N([C@H]3C[C@@H](N5CCCCC5)C3)C(=O)C43CCN(C(=O)[C@@H](C)O)CC3)nc(Nc3ccncc3F)c21 [Example 2] | 0.5 |
| CC(C)n1cnc2cc(-c3ccc4c(c3)N([C@H]3C[C@@H](N5CCC(C)(C)C5)C3)C(=O)C43CCOCC3)nc(Nc3ccncc3F)c21 [Example 71] | 0.2 |
| CC(C)n1cnc2cc(-c3ccc4c(c3)N([C@H]3C[C@@H](N5CCCCC5)C3)C(=O)C4(C)C)nc(Nc3ccncc3F)c21 [Example 83] | 0.8 |
| CC(C)n1cnc2cc(-c3ccc4c(c3)N([C@H]3C[C@@H](N5CCCCC5)C3)C(=O)C43CCN(C(=O)C4(C)CCO4)CC3)nc(Nc3ccncc3F)c21 (stereo partly shown) [Example 11] | 0.2 |
| CC(C)n1cnc2cc(-c3ccc4c(c3)N([C@H]3C[C@@H](N5CCC(C)(C)C5)C3)C(=O)C43CCN(C(=O)[C@@H]4CCCO4)CC3)nc(Nc3ccncc3F)c21 [Example 13] | 0.2 |
| CC(C)n1cnc2cc(-c3ccc4c(c3)N([C@H]3C[C@@H](N5CCC(C)(C)C5)C3)C(=O)C43CCN(C(=O)C4(C)COC4)CC3)nc(Nc3ccncc3F)c21 [Example 77] | 0.4 |
| CC(C)n1cnc2cc(-c3ccc4c(c3)N([C@H]3C[C@@H](N5CCC(C)(C)C5)C3)C(=O)C43CCN(C4COC4)CC3)nc(Nc3ccnc(F)c3F)c21 [Example 93] | 0.2 |
| CC[C@H](C)n1cnc2cc(-c3ccc4c(c3)N([C@H]3C[C@@H](N5CCC(C)(C)C5)C3)C(=O)C43CCN(C4COC4)CC3)nc(Nc3ccncc3F)c21 [Example 90] | 0.3 |
| CC(C)n1cnc2cc(-c3ccc4c(c3)N([C@H]3C[C@@H](N5C6CCC5COC6)C3)C(=O)C43CCN(C4COC4)CC3)nc(Nc3ccncc3F)c21 [Example 50] | 0.5 |
| CC(C)n1cnc2cc(-c3ccc4c(c3)N([C@H]3C[C@@H](N5CCCCC5)C3)C(=O)C43CCN(C(=O)C4CCO4)CC3)nc(Nc3ccncc3F)c21 (stereo partly shown) [Example 22] | 0.3 |
| CC(C)n1cnc2cc(-c3ccc4c(c3)N([C@H]3C[C@@H](N5CCCCCC5)C3)C(=O)C4(C)C)nc(Nc3ccncc3F)c21 [Example 59] | 0.09 |
| CC[C@H](C)n1cnc2cc(-c3ccc4c(c3)N([C@H]3C[C@@H](N5CCCCC5)C3)C(=O)C43CCN(C(C)=O)CC3)nc(Nc3ccncc3F)c21 [Example 72] | 0.7 |
| CC(C)n1cnc2cc(-c3ccc4c(c3)N([C@H]3C[C@@H](N5CC6C(C5)C6(C)C)C3)C(=O)C4(C)C)nc(Nc3ccncc3F)c21 (stereo partly shown) [Example 60] | 0.3 |
